Data as given in patent US20130116241A1, “NOVEL INHIBITOR COMPOUNDS OF PHOSPHODIESTERASE TYPE 10A” (AbbVie Inc., priority 2011, published 2013).
Structures can show the parent of a compound that is named as a salt.

Target: human PDE10A (UniProt Q9Y233)
Assay: Measurement of PDE activity (recombinant enzyme, HTRF cAMP kit)
Format: biochemical
Conditions: Table 1, substrate 20 nM for PDE10, 60 minutes at 29 C, read-out: IC50
Method in brief: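 HTRF detection of cAMP left after hydrolysis, expressed as percent of uninhibited control to derive IC50. Reaction: serially diluted inhibitor mixed with recombinant enzyme, started with 20 nM cAMP, 60 min at 29 °C in Tris-HCl pH 7.5 buffer containing MgCl2 and BSA.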

Sequence of human PDE10A (Q9Y233 290-1055 limits assumed): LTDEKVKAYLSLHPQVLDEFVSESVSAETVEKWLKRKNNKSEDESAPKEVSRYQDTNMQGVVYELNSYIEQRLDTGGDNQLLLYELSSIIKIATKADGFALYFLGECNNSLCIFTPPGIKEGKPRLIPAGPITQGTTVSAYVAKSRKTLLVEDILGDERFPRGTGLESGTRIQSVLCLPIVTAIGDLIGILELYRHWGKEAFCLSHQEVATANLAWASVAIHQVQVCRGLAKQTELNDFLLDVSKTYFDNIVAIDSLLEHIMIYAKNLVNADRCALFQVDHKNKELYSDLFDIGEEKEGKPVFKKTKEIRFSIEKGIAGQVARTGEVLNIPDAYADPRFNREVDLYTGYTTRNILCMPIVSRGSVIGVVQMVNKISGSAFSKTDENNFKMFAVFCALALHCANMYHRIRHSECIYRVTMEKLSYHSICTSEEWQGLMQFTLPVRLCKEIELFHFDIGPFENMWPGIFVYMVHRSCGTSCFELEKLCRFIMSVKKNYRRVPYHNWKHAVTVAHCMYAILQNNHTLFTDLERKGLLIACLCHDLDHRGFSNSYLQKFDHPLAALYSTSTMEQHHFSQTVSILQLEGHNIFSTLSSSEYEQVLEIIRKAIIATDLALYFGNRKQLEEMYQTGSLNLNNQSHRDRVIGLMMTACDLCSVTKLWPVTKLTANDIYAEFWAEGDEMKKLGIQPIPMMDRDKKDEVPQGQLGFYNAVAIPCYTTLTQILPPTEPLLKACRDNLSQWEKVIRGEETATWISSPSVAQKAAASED

IC50 [nM] | Compound
100 to 200 | Cc1ncc(-c2cccc3cnn(CCc4cn5ccccc5n4)c(=O)c23)cn1 [compound 342, 2-[2-(imidazo[1,2-a]pyridin-2-yl)ethyl]-8-(2-methylpyrimidin-5-yl)phthalazin-1(2H)-one]
200 to 500 | O=c1c2c(-c3ccccc3Cl)cccc2cnn1CCc1ccc2ccccc2n1 [Example 108, 8-(2-chlorophenyl)-2-[2-(quinolin-2-yl)ethyl]phthalazin-1(2H)-one]
< 100 | O=c1c2c(-c3ccncc3)cccc2ccn1C1CC1c1ccc2ccccc2n1 (stereo not drawn) [Example 256, syn 8-(pyridin-4-yl)-2-(2-(quinolin-2-yl)cyclopropyl)isoquinolin-1(2H)-one hydrochloride]
200 to 500 | Cn1ccc(-c2cccc3cnn(CCc4cn5ccccc5n4)c(=O)c23)n1 [Example 169, 2-[2-(Imidazo[1,2-a]pyridin-2-yl)ethyl]-8-(1-methyl-1H-pyrazol-3-yl)phthalazin-1(2H)-one]
< 100 | O=c1c2c(C#Cc3cccnc3)csc2cnn1CCc1ccc2ccccc2n1 [compound 319, hydrochloride]
< 100 | O=c1c2c(-c3ccncc3)csc2c(-c2ccncc2)nn1CCc1ccc2ccccc2n1 [Example 1, 3,7-Di(pyridin-4-yl)-5-[2-(quinolin-2-yl)ethyl]thieno[2,3-d]pyridazin-4(5H)-one]
100 to 200 | O=c1c2c(-c3ccc(F)cc3)cccc2cnn1CCc1ccc2ccccc2n1 [Example 105, 8-(4-Fluorophenyl)-2-[2-(quinolin-2-yl)ethyl]phthalazin-1(2H)-one]
200 to 500 | O=c1c2c(N3CCOCC3)csc2ccn1CCc1ccc2ccccc2n1 [Example 211, 3-(Morpholin-4-yl)-5-[2-(quinolin-2-yl)ethyl]thieno[3,2-c]pyridin-4(5H)-one hydrochloride]
< 100 | Cn1nccc1-c1cccc2cnn(CCc3ccc4ccccc4n3)c(=O)c12 [Example 161, 8-(1-Methyl-1H-pyrazol-5-yl)-2-[2-(quinolin-2-yl)ethyl]phthalazin-1(2H)-one hydrochloride]
< 100 | O=c1c2c(-c3ccncc3)csc2c(-c2cccnc2)nn1CCc1cn2ccccc2n1 [compound 304, 5-[2-(imidazo[1,2-a]pyridin-2-yl)ethyl]-7-(pyridin-3-yl)-3-(pyridin-4-yl)thieno[2,3-d]pyridazin-4(5H)-one]
< 100 | Cn1cc(-c2cccc3ccn([C@@H]4C[C@H]4c4ccc5ccccc5n4)c(=O)c23)cn1 (relative stereo) [Example 241, anti 8-(1-methyl-1H-pyrazol-4-yl)-2-(2-(quinolin-2-yl)cyclopropyl)isoquinolin-1(2H)-one]
100 to 200 | COc1ccc(-c2csc3cnn(CCc4ccc5ccccc5n4)c(=O)c23)cc1 [Example 11, 3-(4-methoxyphenyl)-5-[2-(quinolin-2-yl)ethyl]thieno[2,3-d]pyridazin-4(5H)-one]
< 100 | O=c1c2c(-c3ccncc3)cccc2cnn1/C=C/c1ccc2ccccc2n1 [Example 225]
< 100 | CN(c1cccc2cnn(CCc3cn4ccccc4n3)c(=O)c12)C1COC1 [compound 387, 2-[2-(imidazo[1,2-a]pyridin-2-yl)ethyl]-8-[methyl(oxetan-3-yl)amino]phthalazin-1(2H)-one]
< 100 | O=C1Cc2ccc(-c3csc4ccn(CCc5ccc6ccccc6n5)c(=O)c34)cc2N1 [Example 207, 3-(2-Oxoindolin-6-yl)-5-[2-(quinolin-2-yl)ethyl]thieno[3,2-c]pyridin-4(5H)-one]
100 to 200 | O=c1c2c(-c3cncc(F)c3)cccc2cnn1CCc1cn2ccccc2n1 [compound 345, hydrochloride]
< 100 | O=c1c2c(-c3ccoc3)cccc2cnn1CCc1cn2ccccc2n1 [Example 170, 8-(Furan-3-yl)-2-[2-(Imidazo[1,2-a]pyridin-2-yl)ethyl]phthalazin-1(2H)-one]
100 to 200 | 8-(2-Fluoro-5-methoxyphenyl)-2-[2-(quinolin-2-yl)ethyl]phthalazin-1(2H)-one [Example 164]
200 to 500 | O=c1c2c(-c3cccc4cnccc34)csc2cnn1CCc1ccc2ccccc2n1 [Example 44, 3-(isoquinolin-5-yl)-5-[2-(quinolin-2-yl)ethyl]thieno[2,3-d]pyridazin-4(5H)-one]
< 100 | N#Cc1ccc(-c2cccc3cnn(CCc4ccc5ccccc5n4)c(=O)c23)cc1 [Example 103, 4-{4-Oxo-3-[2-(quinolin-2-yl)ethyl]-3,4-dihydrophthalazin-5-yl}benzonitrile]
100 to 200 | O=c1c2c(-c3ccncc3)csc2cnn1CCc1cnc2ccccc2n1 [compound 311, hydrochloride]
200 to 500 | O=c1c2c(-c3ccc4c(c3)OCO4)cccc2cnn1CCc1ccc2ccccc2n1 [Example 138, 8-(1,3-Benzodioxol-5-yl)-2-[2-(quinolin-2-yl)ethyl]phthalazin-1(2H)-one]

IC50 [nM] | Compound
< 100 | O=c1c2c(-c3ccncc3)csc2cnn1CCc1ccc2ncccc2n1 [compound 312, 5-[2-(1,5-naphthyridin-2-yl)ethyl]-3-(pyridin-4-yl)thieno[2,3-d]pyridazin-4(5H)-one]
200 to 500 | O=c1c2c(-c3cccnc3)cccc2cnn1CCc1cn2ccccc2n1 [Example 165, 2-[2-(Imidazo[1,2-a]pyridin-2-yl)ethyl]-8-(pyridin-3-yl)phthalazin-1(2H)-one]
200 to 500 | CN(C)C(=O)c1cccc(-c2csc3cnn(CCc4ccc5ccccc5n4)c(=O)c23)c1 [Example 32, N,N-dimethyl-3-{4-oxo-5-[2-(quinolin-2-yl)ethyl]-4,5-dihydrothieno[2,3-d]pyridazin-3-yl}benzamide]
< 100 | O=c1c2c(N[C@H]3CCOC3)cccc2cnn1CCc1cn2ccccc2n1 [compound 376, 2-[2-(imidazo[1,2-a]pyridin-2-yl)ethyl]-8-[(3S)-tetrahydrofuran-3-ylamino]phthalazin-1(2H)-one]
100 to 200 | O=c1c2c(N3CCC(F)(F)CC3)cccc2cnn1CCc1cn2ccccc2n1 [Example 179, 8-(4,4-Difluoropiperidin-1-yl)-2-[2-(imidazo[1,2-a]pyridin-2-yl)ethyl]phthalazin-1(2H)-one]
< 100 | O=c1c2c(N3CCS(=O)(=O)CC3)cccc2cnn1CCc1ccc2ccccc2n1 [Example 173, 8-(1,1-Dioxidothiomorpholin-4-yl)-2-[2-(quinolin-2-yl)ethyl]-phthalazin-1(2H)-one]
< 100 | O=c1c2c(-c3ccncc3)csc2cnn1CCc1nc2ccccc2[nH]1 [compound 317, hydrochloride]
100 to 200 | COc1ccc(F)c(-c2csc3cnn(CCc4ccc5ccccc5n4)c(=O)c23)c1 [Example 91, 3-(2-fluoro-5-methoxyphenyl)-5-[2-(quinolin-2-yl)ethyl]thieno[2,3-d]pyridazin-4(5H)-one]
100 to 200 | O=c1c2c(-c3ccccc3Cl)csc2cnn1CCc1ccc2ccccc2n1 [Example 17, 3-(2-chlorophenyl)-5-[2-(quinolin-2-yl)ethyl]thieno[2,3-d]pyridazin-4(5H)-one]
< 100 | O=c1c2c(NC3COC3)cccc2ccn1C1CC1c1ccc2ccccc2n1 (single isomer, unassigned; (+)) [Example 235a, (+) anti 8-(oxetan-3-ylamino)-2-(2-(quinolin-2-yl)cyclopropyl)isoquinolin-1(2H)-one]
< 100 | O=c1c2c(NC3COC3)cccc2cnn1CCc1cn2ccccc2n1 [compound 395, 2-[2-(imidazo[1,2-a]pyridin-2-yl)ethyl]-8-(oxetan-3-ylamino)phthalazin-1(2H)-one]
200 to 500 | CC(C)Cn1cc(-c2csc3cnn(CCc4ccc5ccccc5n4)c(=O)c23)cn1 [Example 57, 3-[1-(2-methylpropyl)-1H-pyrazol-4-yl]-5-[2-(quinolin-2-yl)ethyl]thieno[2,3-d]pyridazin-4(5H)-one]
< 100 | CC(C)c1ccc(-c2csc3cnn(CCc4ccc5ccccc5n4)c(=O)c23)cc1 [Example 8, 3-[4-(propan-2-yl)phenyl]-5-[2-(quinolin-2-yl)ethyl]thieno[2,3-d]pyridazin-4(5H)-one]
< 100 | O=c1c2c(-c3cccnc3)cccc2ccn1C1CC1c1ccc2ccccc2n1 (single isomer, unassigned; (-)) [Example 239b, (−) anti 8-(pyridin-3-yl)-2-(2-(quinolin-2-yl)cyclopropyl)isoquinolin-1(2H)-one]
100 to 200 | COc1ncc(-c2cccc3cnn(CCc4cn5ccccc5n4)c(=O)c23)cn1 [compound 347, 2-[2-(imidazo[1,2-a]pyridin-2-yl)ethyl]-8-(2-methoxypyrimidin-5-yl)phthalazin-1(2H)-one]
< 100 | O=c1c2c(C3CCOC3)cccc2cnn1CCc1cn2ccccc2n1 (stereo not shown) [compound 337, 2-[2-(imidazo[1,2-a]pyridin-2-yl)ethyl]-8-(tetrahydrofuran-3-yl)phthalazin-1(2H)-one]
< 100 | Cn1nccc1-c1csc2ccn(CCc3ccc4ccccc4n3)c(=O)c12 [Example 204, 3-(1-Methyl-1H-pyrazol-5-yl)-5-[2-(quinolin-2-yl)ethyl]thieno[3,2-c]pyridin-4(5)H-one hydrochloride]
< 100 | O=c1c2c(-c3ccccc3F)cccc2cnn1CCc1ccc2ccccc2n1 [Example 111, 8-(2-Fluorophenyl)-2-[2-(quinolin-2-yl)ethyl]phthalazin-1(2H)-one]
< 100 | O=c1c2c(-c3ccncc3)cccc2ccn1CCc1ccc2ccccc2n1 [Example 223, 8-(Pyridin-4-yl)-2-(2-quinolin-2-yl-ethyl)isoquinolin-1(2H)-one]
200 to 500 | Cc1cc(F)ccc1-c1csc2cnn(CCc3ccc4ccccc4n3)c(=O)c12 [Example 62, 3-(4-fluoro-2-methylphenyl)-5-[2-(quinolin-2-yl)ethyl]thieno[2,3-d]pyridazin-4(5H)-one]
< 100 | O=c1c2c(-c3ccncc3)csc2ccn1CCc1cn2ccccc2n1 [Example 210, 5-[2-(Imidazo[1,2-a]pyridin-2-yl)ethyl]-3-(pyridin-4-yl)thieno[3,2-c]pyridin-4(5H)-one hydrochloride]
